According to patent US11981658B2, “Substituted aminopyridine compounds as EGFR inhibitors” (YUHAN CORPORATION, priority 2021, dated 2024):
Where two headings read alike, the source gives them in different places.

Tests used:
EGFR L858R/T790M/C797S = EGFR L858R/T790M/C797S (Homo sapiens, UniProt P00533, C797S/L858R/T790M); assay: Biochemical EGFR kinase inhibition assay (Lance Ultra TR-FRET), triple mutant L858R/T790M/C797S
In short: (§1)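 Step 1: compound in kinase buffer, 0.003–10 μM. Step 2: kinase reaction 1 h at room temperature. Step 4: TR-FRET read at 615/665 nm; IC50 calculated.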

EGFR Del19/T790M/C797S = EGFR Del19/T790M/C797S (Homo sapiens, UniProt P00533, C797S/DEL746-750/T790M); assay: Biochemical EGFR kinase inhibition assay (Lance Ultra TR-FRET), triple mutant del19/T790M/C797S
EGFR Del19/T790M/C797S, sequence (P00533 with tags, fused parts or gaps DEL746-750/T790M/C797S): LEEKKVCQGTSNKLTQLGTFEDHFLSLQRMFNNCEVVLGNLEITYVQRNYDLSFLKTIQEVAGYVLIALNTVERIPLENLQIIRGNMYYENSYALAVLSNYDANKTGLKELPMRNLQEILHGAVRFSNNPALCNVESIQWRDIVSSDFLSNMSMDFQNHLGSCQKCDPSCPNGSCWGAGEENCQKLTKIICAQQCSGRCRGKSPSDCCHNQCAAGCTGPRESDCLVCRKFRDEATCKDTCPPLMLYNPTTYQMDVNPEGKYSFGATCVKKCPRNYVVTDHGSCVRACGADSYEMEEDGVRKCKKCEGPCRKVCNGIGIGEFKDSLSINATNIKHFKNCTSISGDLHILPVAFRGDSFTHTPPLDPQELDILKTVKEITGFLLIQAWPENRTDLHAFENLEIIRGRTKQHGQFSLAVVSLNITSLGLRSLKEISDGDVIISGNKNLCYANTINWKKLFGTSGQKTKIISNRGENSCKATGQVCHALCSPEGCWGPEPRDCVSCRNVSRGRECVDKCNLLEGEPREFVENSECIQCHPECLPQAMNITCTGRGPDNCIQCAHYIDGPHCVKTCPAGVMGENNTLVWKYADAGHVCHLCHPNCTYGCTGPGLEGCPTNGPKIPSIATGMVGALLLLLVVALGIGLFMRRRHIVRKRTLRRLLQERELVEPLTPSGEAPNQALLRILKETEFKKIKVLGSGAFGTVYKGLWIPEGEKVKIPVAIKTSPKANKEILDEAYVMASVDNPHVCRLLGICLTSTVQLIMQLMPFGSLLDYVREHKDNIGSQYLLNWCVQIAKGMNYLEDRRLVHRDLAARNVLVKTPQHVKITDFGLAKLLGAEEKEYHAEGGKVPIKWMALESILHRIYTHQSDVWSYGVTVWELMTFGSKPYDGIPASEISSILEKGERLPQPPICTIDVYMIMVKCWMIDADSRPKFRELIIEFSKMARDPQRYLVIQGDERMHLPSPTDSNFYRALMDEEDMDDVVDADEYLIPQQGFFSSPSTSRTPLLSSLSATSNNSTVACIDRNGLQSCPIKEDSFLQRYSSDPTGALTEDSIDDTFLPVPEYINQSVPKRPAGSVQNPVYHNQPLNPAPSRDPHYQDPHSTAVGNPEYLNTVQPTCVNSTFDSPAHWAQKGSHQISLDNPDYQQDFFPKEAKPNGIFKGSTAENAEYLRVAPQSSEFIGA
In short: as §1

EGFR wildtype (WT) = EGFR wildtype (WT) (Homo sapiens, UniProt P00533); assay: Biochemical EGFR kinase inhibition assay (Lance Ultra TR-FRET), wildtype
In short: as §1

EGFR Del19/C797S = EGFR Del19/C797S (Homo sapiens, UniProt P00533, C797S/DEL746-750); assay: Biochemical EGFR kinase inhibition assay (Lance Ultra TR-FRET), double mutant del19/C797S
EGFR Del19/C797S, sequence (P00533 with tags, fused parts or gaps DEL746-750/C797S): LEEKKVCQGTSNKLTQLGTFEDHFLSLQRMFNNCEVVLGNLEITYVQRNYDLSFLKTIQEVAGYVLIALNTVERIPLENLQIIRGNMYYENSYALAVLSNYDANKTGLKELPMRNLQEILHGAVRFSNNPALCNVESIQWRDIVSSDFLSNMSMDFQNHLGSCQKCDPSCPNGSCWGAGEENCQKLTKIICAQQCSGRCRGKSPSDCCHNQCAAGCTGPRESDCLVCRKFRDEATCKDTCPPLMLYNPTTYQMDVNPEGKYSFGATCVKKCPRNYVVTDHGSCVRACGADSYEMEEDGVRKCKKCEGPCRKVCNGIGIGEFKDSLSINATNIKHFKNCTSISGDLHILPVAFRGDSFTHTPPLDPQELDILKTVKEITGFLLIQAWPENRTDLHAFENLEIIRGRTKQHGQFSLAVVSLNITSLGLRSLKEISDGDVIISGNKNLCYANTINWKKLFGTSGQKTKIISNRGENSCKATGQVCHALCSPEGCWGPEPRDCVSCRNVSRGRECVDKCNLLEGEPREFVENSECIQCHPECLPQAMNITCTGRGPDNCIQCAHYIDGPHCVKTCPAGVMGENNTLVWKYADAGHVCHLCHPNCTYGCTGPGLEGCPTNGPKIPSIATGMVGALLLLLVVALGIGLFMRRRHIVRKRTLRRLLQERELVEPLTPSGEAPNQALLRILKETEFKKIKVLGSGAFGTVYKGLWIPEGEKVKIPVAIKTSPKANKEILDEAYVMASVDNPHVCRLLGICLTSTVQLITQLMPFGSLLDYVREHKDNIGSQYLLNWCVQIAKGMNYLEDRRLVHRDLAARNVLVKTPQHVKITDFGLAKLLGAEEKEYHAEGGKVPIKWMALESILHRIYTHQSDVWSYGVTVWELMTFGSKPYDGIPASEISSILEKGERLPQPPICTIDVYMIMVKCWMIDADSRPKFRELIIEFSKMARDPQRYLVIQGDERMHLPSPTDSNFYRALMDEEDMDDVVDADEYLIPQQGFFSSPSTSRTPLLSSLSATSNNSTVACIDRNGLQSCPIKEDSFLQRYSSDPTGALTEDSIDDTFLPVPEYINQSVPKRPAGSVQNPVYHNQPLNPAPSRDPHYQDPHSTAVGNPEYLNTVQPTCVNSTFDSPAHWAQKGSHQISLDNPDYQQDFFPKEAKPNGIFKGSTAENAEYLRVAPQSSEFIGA
In short: as §1

EGFR L858R/C797S = EGFR L858R/C797S (Homo sapiens, UniProt P00533, C797S/L858R); assay: Biochemical EGFR kinase inhibition assay (Lance Ultra TR-FRET), double mutant L858R/C797S
EGFR L858R/C797S, sequence (P00533 25-1210 C797S/L858R): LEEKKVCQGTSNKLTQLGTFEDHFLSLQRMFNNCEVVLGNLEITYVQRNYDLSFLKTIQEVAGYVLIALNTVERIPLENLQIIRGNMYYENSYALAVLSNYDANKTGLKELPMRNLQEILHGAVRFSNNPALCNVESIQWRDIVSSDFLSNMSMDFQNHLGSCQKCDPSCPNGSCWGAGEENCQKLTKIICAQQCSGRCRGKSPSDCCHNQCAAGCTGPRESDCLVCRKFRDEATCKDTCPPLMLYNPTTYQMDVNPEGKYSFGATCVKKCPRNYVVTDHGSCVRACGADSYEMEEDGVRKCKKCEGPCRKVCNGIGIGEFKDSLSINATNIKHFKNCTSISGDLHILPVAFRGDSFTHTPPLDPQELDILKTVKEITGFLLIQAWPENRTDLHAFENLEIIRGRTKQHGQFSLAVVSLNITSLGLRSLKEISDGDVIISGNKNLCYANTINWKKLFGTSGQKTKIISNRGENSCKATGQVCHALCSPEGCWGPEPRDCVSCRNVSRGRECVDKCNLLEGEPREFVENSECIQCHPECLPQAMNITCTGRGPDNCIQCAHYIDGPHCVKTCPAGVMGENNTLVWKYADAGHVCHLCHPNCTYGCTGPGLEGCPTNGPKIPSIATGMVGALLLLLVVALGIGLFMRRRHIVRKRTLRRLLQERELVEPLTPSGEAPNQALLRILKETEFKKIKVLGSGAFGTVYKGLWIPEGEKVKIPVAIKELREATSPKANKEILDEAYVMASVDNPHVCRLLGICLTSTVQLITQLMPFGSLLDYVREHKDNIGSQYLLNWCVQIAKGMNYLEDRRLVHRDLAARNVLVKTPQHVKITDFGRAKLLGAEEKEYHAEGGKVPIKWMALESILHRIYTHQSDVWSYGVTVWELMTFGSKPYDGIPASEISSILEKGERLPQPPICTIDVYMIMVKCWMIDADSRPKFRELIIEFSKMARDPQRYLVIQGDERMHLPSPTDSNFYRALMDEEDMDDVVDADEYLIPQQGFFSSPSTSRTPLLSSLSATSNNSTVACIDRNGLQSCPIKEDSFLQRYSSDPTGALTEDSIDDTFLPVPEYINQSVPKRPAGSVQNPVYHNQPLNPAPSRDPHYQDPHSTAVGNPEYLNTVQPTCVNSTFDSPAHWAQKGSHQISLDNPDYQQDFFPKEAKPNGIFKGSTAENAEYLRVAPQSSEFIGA
In short: as §1

[1] = IC50 L858R/T790M/C797S (nM), 100 μM ATP
[2] = ATP at Km, read-out: IC50 Del19/T790M/C797S (nM), Km ATP
[3] = IC50 Del19/T790M/C797S (nM), 100 μM ATP
[4] = ATP at Km, read-out: IC50 WT (nM), Km ATP
[5] = ATP at Km, read-out: IC50 Del19/C797S (nM), Km ATP
[6] = IC50 Del19/C797S (nM), 100 μM ATP
[7] = ATP at Km, read-out: IC50 L858R/C797S (nM), Km ATP
[8] = IC50 L858R/C797S (nM), 100 μM ATP
[9] = Km ATP, read-out: IC50 L858R/T790M/C797S (nM), Km ATP
[10] = Km ATP, read-out: IC50 Del19/T790M/C797S (nM), Km ATP
[11] = Km ATP, read-out: IC50 WT (nM), Km ATP
[12] = Km ATP, read-out: IC50 Del19/C797S (nM), Km ATP
[13] = Km ATP, read-out: IC50 L858R/C797S (nM), Km ATP
[14] = ATP at Km, read-out: IC50 L858R/T790M/C797S (nM), Km ATP

EGFR L858R/T790M/C797S, sequence (P00533 25-1210 T790M/C797S/L858R): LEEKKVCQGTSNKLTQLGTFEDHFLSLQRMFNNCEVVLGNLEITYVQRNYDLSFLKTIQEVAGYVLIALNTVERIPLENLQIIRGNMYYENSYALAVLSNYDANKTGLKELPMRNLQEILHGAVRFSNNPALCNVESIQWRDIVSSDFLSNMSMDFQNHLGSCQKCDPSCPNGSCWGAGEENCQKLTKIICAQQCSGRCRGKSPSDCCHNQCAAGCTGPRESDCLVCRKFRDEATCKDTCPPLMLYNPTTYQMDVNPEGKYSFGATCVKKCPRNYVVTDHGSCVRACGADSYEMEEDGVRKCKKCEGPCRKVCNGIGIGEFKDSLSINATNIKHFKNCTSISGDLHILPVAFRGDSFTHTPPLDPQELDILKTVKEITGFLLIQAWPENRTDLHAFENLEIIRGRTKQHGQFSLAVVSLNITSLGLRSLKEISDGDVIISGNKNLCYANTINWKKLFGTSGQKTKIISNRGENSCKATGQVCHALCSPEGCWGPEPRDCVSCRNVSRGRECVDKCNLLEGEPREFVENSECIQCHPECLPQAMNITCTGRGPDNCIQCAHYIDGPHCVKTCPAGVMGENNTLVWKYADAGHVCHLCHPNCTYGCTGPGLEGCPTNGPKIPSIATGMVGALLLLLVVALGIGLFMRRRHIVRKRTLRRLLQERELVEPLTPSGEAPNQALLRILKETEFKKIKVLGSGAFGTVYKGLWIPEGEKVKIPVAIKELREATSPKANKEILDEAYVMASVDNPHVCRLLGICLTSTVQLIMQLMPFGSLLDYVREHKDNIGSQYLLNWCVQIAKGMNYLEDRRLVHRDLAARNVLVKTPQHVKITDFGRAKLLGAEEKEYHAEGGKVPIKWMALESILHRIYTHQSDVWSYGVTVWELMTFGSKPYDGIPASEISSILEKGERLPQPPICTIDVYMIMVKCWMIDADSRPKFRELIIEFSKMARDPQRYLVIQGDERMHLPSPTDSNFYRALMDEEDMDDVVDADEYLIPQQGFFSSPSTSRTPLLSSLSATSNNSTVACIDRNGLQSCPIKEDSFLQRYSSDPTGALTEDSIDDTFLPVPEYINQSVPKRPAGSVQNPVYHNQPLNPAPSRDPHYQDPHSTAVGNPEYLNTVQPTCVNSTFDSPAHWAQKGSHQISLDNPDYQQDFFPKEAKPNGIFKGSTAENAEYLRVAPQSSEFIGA

Row | Structure (SMILES) | IC50 (EGFR L858R/T790M/C797S; [1]) [nM] | IC50 (EGFR Del19/T790M/C797S; [2]) [nM] | IC50 (EGFR Del19/T790M/C797S; [3]) [nM] | IC50 (EGFR wildtype (WT); [4]) [nM] | IC50 (EGFR wildtype (WT); IC50 WT (nM), 100 μM ATP) [nM] | IC50 (EGFR Del19/C797S; [5]) [nM] | IC50 (EGFR Del19/C797S; [6]) [nM] | IC50 (EGFR L858R/C797S; [7]) [nM] | IC50 (EGFR L858R/C797S; [8]) [nM] | IC50 (EGFR L858R/T790M/C797S; [9]) [nM] | IC50 (EGFR Del19/T790M/C797S; [10]) [nM] | IC50 (EGFR wildtype (WT); [11]) [nM] | IC50 (EGFR Del19/C797S; [12]) [nM] | IC50 (EGFR L858R/C797S; [13]) [nM] | IC50 (EGFR L858R/T790M/C797S; Km ATP, read-out: IC50 L858R/T790M/C797S (nM) Km ATP) [nM] | IC50 (EGFR Del19/T790M/C797S; Km ATP, read-out: IC50 Del19/T790M/C797S (nM) Km ATP) [nM] | IC50 (EGFR wildtype (WT); Km ATP, read-out: IC50 WT (nM) Km ATP) [nM] | IC50 (EGFR Del19/C797S; Km ATP, read-out: IC50 Del19/C797S (nM) Km ATP) [nM] | IC50 (EGFR L858R/C797S; Km ATP, read-out: IC50 L858R/C797S (nM) Km ATP) [nM] | IC50 (EGFR L858R/T790M/C797S; [14]) [nM]
1 | CC(C)(O)CC#Cc1cnc(Nc2ccnc(-c3cnn(S(=O)(=O)C4CC4)c3)n2)cc1N1CCC(C)(CO)CC1 [Example 284, 5-(6-((2-(1-(Cyclopropylsulfonyl)-1H-pyrazol-4-yl)pyrimidin-4-yl)amino)-4-(4-(hydroxymethyl)-4-methylpiperidin-1-yl)pyridin-3-yl)-2-methylpent-4-yn-2-ol] | 1.7 | 1.1 | 4.4 | 12.6 | 7270 | 2.8 | 6.8 | 1.7 | 15.9 |  |  |  |  |  |  |  |  |  |  | 
2 | O=S(=O)(C1CC1)n1cc(-c2nccc(Nc3cc(N4CCCC(O)C4)c(C#Cc4ccc(N5CCOCC5)nc4)cn3)n2)cn1 (stereo not shown) [Example 227, 1-(2-((2-(1-(Cyclopropylsulfonyl)-1H-pyrazol-4-yl)pyrimidin-4-yl)amino)-5-((6-morpholinopyridin-3-yl)ethynyl)pyridin-4-yl)piperidin-3-ol] | 18.3 |  | 4.6 |  | > 10000 |  | 94.7 |  | 294 |  |  |  |  |  |  |  |  |  |  | 
3 | CN(C)CCn1cc(C#Cc2cnc(Nc3ccnc(-c4cnn(S(=O)(=O)C5CC5)c4)n3)cc2N2CCC(C)(CO)CC2)cn1 [Example 116, (1-(2-((2-(1-(Cyclopropylsulfonyl)-1H-pyrazol-4-yl)pyrimidin-4-yl)amino)-5-((1-(2-(dimethylamino)ethyl)-1H-pyrazol-4-yl)ethynyl)pyridin-4-yl)-4-methylpiperidin-4-yl)methanol] | 0.3 |  | 0.4 |  | 143 |  | 0.6 |  | 1 |  |  |  |  |  | 0.2 | 0.3 | 1 | 0.3 | 0.2 | 
4 | CC1(CO)CCN(c2cc(Nc3ccnc(-c4cnn(S(=O)(=O)C5CC5)c4)n3)ncc2C#CC2(O)CCCCC2)CC1 [Example 175, 1-((6-((2-(1-(Cyclopropylsulfonyl)-1H-pyrazol-4-yl)pyrimidin-4-yl)amino)-4-(4-(hydroxymethyl)-4-methylpiperidin-1-yl)pyridin-3-yl)ethynyl)cyclohexan-1-ol] | 3.6 | 1.2 | 1.4 | 131 | > 10000 | 13.3 | 17.2 | 33.5 | 333 |  |  |  |  |  |  |  |  |  |  | 3.6
5 | CC1(CO)CCN(c2cc(Nc3ccnc(-c4cnn(S(=O)(=O)C5CC5)c4)n3)ncc2C#Cc2ccc(CN3CCOCC3)cn2)CC1 [Example 185, (1-(2-((2-(1-(Cyclopropylsulfonyl)-1H-pyrazol-4-yl)pyrimidin-4-yl)amino)-5-((5-(morpholinomethyl)pyridin-2-yl)ethynyl)pyridin-4-yl)-4-methylpiperidin-4-yl)methanol] | 1.1 | 0.4 | 1.2 | 1.7 | > 10000 | 0.5 | 0.8 | 0.9 | 6.8 |  |  |  |  |  |  |  |  |  |  | 0.2

Results, then the compound that gave them:

Row | IC50 (EGFR L858R/T790M/C797S; [1]) [nM] | IC50 (EGFR Del19/T790M/C797S; [2]) [nM] | IC50 (EGFR Del19/T790M/C797S; [3]) [nM] | IC50 (EGFR wildtype (WT); [4]) [nM] | IC50 (EGFR wildtype (WT); IC50 WT (nM), 100 μM ATP) [nM] | IC50 (EGFR Del19/C797S; [5]) [nM] | IC50 (EGFR Del19/C797S; [6]) [nM] | IC50 (EGFR L858R/C797S; [7]) [nM] | IC50 (EGFR L858R/C797S; [8]) [nM] | IC50 (EGFR L858R/T790M/C797S; [9]) [nM] | IC50 (EGFR Del19/T790M/C797S; [10]) [nM] | IC50 (EGFR wildtype (WT); [11]) [nM] | IC50 (EGFR Del19/C797S; [12]) [nM] | IC50 (EGFR L858R/C797S; [13]) [nM] | IC50 (EGFR L858R/T790M/C797S; Km ATP, read-out: IC50 L858R/T790M/C797S (nM) Km ATP) [nM] | IC50 (EGFR Del19/T790M/C797S; Km ATP, read-out: IC50 Del19/T790M/C797S (nM) Km ATP) [nM] | IC50 (EGFR wildtype (WT); Km ATP, read-out: IC50 WT (nM) Km ATP) [nM] | IC50 (EGFR Del19/C797S; Km ATP, read-out: IC50 Del19/C797S (nM) Km ATP) [nM] | IC50 (EGFR L858R/C797S; Km ATP, read-out: IC50 L858R/C797S (nM) Km ATP) [nM] | IC50 (EGFR L858R/T790M/C797S; [14]) [nM] | Structure (SMILES)
6 | 0.7 |  | 0.6 |  | > 10000 |  | 4.4 |  | 36.7 | 0.2 | 0.3 | 9.5 | 1.2 | 2.7 |  |  |  |  |  |  | CS(=O)(=O)N1CCC(C#Cc2cnc(Nc3ccnc(-c4cnn(S(=O)(=O)C5CC5)c4)n3)cc2N[C@H]2CC[C@@H](CO)CC2)CC1 [Example 387, ((1s,4s)-4-((2-((2-(1-(Cyclopropylsulfonyl)-1H-pyrazol-4-yl)pyrimidin-4-yl)amino)-5-((1-(methylsulfonyl)piperidin-4-yl)ethynyl)pyridin-4-yl)amino)cyclohexyl)methanol]
7 | 2.3 |  | 1.3 |  | > 10000 |  | 6.9 |  | 119 | 0.5 | 1.6 | 52.7 | 6.4 | 12.6 |  |  |  |  |  |  | O=S(=O)(C1CC1)n1cc(-c2nccc(Nc3cc(NC4CCC(O)CC4)c(C#CC4CCOC4C(F)(F)F)cn3)n2)cn1 [Example 420, (1s,4s)-4-((2-((2-(1-(Cyclopropylsulfonyl)-1H-pyrazol-4-yl)pyrimidin-4-yl)amino)-5-(((2R)-2-(trifluoromethyl)tetrahydrofuran-3-yl)ethynyl)pyridin-4-yl)amino)cyclohexan-1-ol]
